In ChEMBL document CHEMBL4196009, “Novel vitexin-inspired scaffold against leukemia” (Eur J Med Chem, 2018):
Each block holds one compound with its values, some of them ahead of it.

What was measured:
UoC-B1 = assay: Antiproliferative activity against human UOCB1 cells after 72 hrs by CelTiter-Glo assay; assay type: functional, cell-based; settings: UoC-B1, 72 h
KOPN-8 = assay: Antiproliferative activity against human KOPN8 cells after 72 hrs by CelTiter-Glo assay; assay type: functional, cell-based; settings: KOPN-8, 72 h
BJ = assay: Antiproliferative activity against human BJ cells after 72 hrs by CelTiter-Glo assay; assay type: cell-based
SEM cells = assay: Antiproliferative activity against human SEM cells after 72 hrs by CelTiter-Glo assay; assay type: functional, cell-based
SUP-B15 = assay: Antiproliferative activity against human SUP-B15 cells after 72 hrs by CelTiter-Glo assay; assay type: functional, cell-based; settings: SUP-B15, 72 h
HepG2 = assay: Antiproliferative activity against human HepG2 cells after 72 hrs by CelTiter-Glo assay; assay type: functional, cell-based; settings: HepG2, 72 h
THLE-2 = assay: Antiproliferative activity against human THLE2 cells after 72 hrs by CelTiter-Glo assay; assay type: cell-based; settings: THLE-2, 72 h

- EC50 (HepG2): > 41.6 µM
Structure (SMILES): COC(=O)c1cc(=O)c2cc([N+](=O)[O-])ccc2[nH]1
- EC50 (UoC-B1): > 41.6 µM
- EC50 (KOPN-8): > 41.6 µM
- EC50 (BJ): > 82.8 µM
- EC50 (SEM cells): > 41.6 µM
- EC50 (SUP-B15): 76.5 µM

- EC50 (HepG2): > 58.6 µM
Structure (SMILES): COc1cc(OC)c2c(=O)cc(C(=O)Nc3cccc(N4CCCC4)c3)[nH]c2c1
- EC50 (UoC-B1): > 58.6 µM
- EC50 (KOPN-8): > 58.6 µM
- EC50 (BJ): > 58.6 µM
- EC50 (SEM cells): > 58.6 µM
- EC50 (SUP-B15): > 58.6 µM

- EC50 (HepG2): > 19 µM
Structure (SMILES): COC(=O)c1cc(=O)c2c(OC)cc(OC)cc2n1C
- EC50 (UoC-B1): 0.773 µM
- EC50 (KOPN-8): > 19 µM
- EC50 (BJ): > 37.9 µM
- EC50 (SEM cells): > 19 µM
- EC50 (SUP-B15): > 37.9 µM

- EC50 (HepG2): > 86.2 µM
Structure (SMILES): COC(=O)c1cc(=O)c2cc(NC(=O)Nc3ccc4c(c3)CCN4C)ccc2[nH]1
- EC50 (UoC-B1): > 86.2 µM
- EC50 (KOPN-8): > 86.2 µM
- EC50 (BJ): > 86.2 µM
- EC50 (SEM cells): > 86.2 µM
- EC50 (SUP-B15): > 86.2 µM

- EC50 (HepG2): > 24.1 µM
Structure (SMILES): COC(=O)c1cc(=O)c2cc(NC(=O)Nc3ccc4c(c3)CCC4)ccc2[nH]1
- EC50 (UoC-B1): > 24.1 µM
- EC50 (KOPN-8): > 24.1 µM
- EC50 (BJ): > 24.1 µM
- EC50 (SEM cells): > 24.1 µM
- EC50 (SUP-B15): > 24.1 µM

- EC50 (HepG2): > 12.1 µM
Structure (SMILES): COC(=O)c1cc(=O)c2cc(NC(=O)NC3c4ccccc4-c4ccccc43)ccc2[nH]1
- EC50 (UoC-B1): > 12.1 µM
- EC50 (KOPN-8): > 12.1 µM
- EC50 (BJ): > 24.1 µM
- EC50 (SEM cells): > 12.1 µM
- EC50 (SUP-B15): > 24.1 µM

- EC50 (HepG2): 5.3 µM
Structure (SMILES): COc1ccc(Oc2ccc(C(F)(F)F)cc2NC(=O)c2cc(=O)c3c(OC)cc(OC)cc3[nH]2)cc1
- EC50 (UoC-B1): > 67.2 µM
- EC50 (KOPN-8): > 67.2 µM
- EC50 (BJ): > 67.2 µM
- EC50 (SEM cells): > 67.2 µM
- EC50 (SUP-B15): > 67.2 µM

- EC50 (HepG2): > 54 µM
Structure (SMILES): COc1cc(OC)c2c(=O)cc(C(=O)Nc3cccc(-c4nccs4)c3)[nH]c2c1
- EC50 (UoC-B1): > 54 µM
- EC50 (KOPN-8): > 54 µM
- EC50 (BJ): > 54 µM
- EC50 (SEM cells): > 54 µM
- EC50 (SUP-B15): > 54 µM

- EC50 (HepG2): > 9.81 µM
Structure (SMILES): COC(=O)c1cc(=O)c2cc(NC(=O)NCCc3cccs3)ccc2[nH]1
- EC50 (UoC-B1): > 9.81 µM
- EC50 (KOPN-8): > 9.81 µM
- EC50 (BJ): > 19.5 µM
- EC50 (SEM cells): > 9.81 µM
- EC50 (SUP-B15): > 19.5 µM

- EC50 (HepG2): > 25.3 µM
Structure (SMILES): COC(=O)c1cc(=O)c2cc(NC(=O)N[C@@H](C)c3cccc(OC)c3)ccc2[nH]1
- EC50 (UoC-B1): > 25.3 µM
- EC50 (KOPN-8): > 25.3 µM
- EC50 (BJ): > 25.3 µM
- EC50 (SEM cells): > 25.3 µM
- EC50 (SUP-B15): > 25.3 µM

- EC50 (HepG2): > 36.8 µM
Structure (SMILES): COc1cc(OC)c2c(=O)cc(C(=O)Nc3ccc4oc(-c5ccc(F)cc5)nc4c3)[nH]c2c1
- EC50 (UoC-B1): > 36.8 µM
- EC50 (KOPN-8): > 36.8 µM
- EC50 (BJ): > 36.8 µM
- EC50 (SEM cells): > 36.8 µM
- EC50 (SUP-B15): > 36.8 µM

- EC50 (HepG2): > 19.8 µM
Structure (SMILES): COc1cc(OC)c2c(=O)cc(C(=O)Nc3ccc(N4CCN(C)CC4)cc3)[nH]c2c1
- EC50 (UoC-B1): > 19.8 µM
- EC50 (KOPN-8): > 19.8 µM
- EC50 (BJ): > 19.8 µM
- EC50 (SEM cells): > 19.8 µM
- EC50 (SUP-B15): > 19.8 µM

- EC50 (HepG2): > 20 µM
Structure (SMILES): COC(=O)c1cc(=O)c2c(OC)cc(OC)cc2n1S(=O)(=O)c1ccc(C)cc1
- EC50 (KOPN-8): 6 µM
- EC50 (BJ): 139 µM
- EC50 (THLE-2): 149 µM
- EC50 (SEM cells): 5.8 µM
- EC50 (SUP-B15): 9.7 µM

- EC50 (HepG2): > 23 µM
Structure (SMILES): COc1cc(OC)c2c(=O)cc(C(=O)Nc3ccc(Oc4ccc([N+](=O)[O-])cc4)cc3)[nH]c2c1
- EC50 (KOPN-8): 20.5 µM
- EC50 (BJ): > 23 µM
- EC50 (THLE-2): 90 µM
- EC50 (SEM cells): 0.48 µM
- EC50 (SUP-B15): 4.3 µM

- EC50 (HepG2): > 6.35 µM
Structure (SMILES): COC(=O)c1cc(=O)c2cc(NC(=O)Nc3ccc(Cl)c(Cl)c3)ccc2[nH]1
- EC50 (UoC-B1): > 6.35 µM
- EC50 (KOPN-8): > 6.35 µM
- EC50 (BJ): > 12.6 µM
- EC50 (SEM cells): > 6.35 µM
- EC50 (SUP-B15): 5.52 µM

- EC50 (HepG2): > 8.08 µM
Structure (SMILES): COC(=O)c1cc(=O)c2cc(NC(=O)Nc3cccc(C(C)=O)c3)ccc2[nH]1
- EC50 (UoC-B1): > 8.08 µM
- EC50 (KOPN-8): > 8.08 µM
- EC50 (BJ): > 16.1 µM
- EC50 (SEM cells): > 8.08 µM
- EC50 (SUP-B15): 11.4 µM

- EC50 (HepG2): > 6.35 µM
Structure (SMILES): COC(=O)c1cc(=O)c2cc(NC(=O)Nc3ccc(F)c(Cl)c3)ccc2[nH]1
- EC50 (UoC-B1): > 6.35 µM
- EC50 (KOPN-8): > 6.35 µM
- EC50 (BJ): > 12.6 µM
- EC50 (SEM cells): > 6.35 µM
- EC50 (SUP-B15): > 12.6 µM

- EC50 (HepG2): > 13.9 µM
Structure (SMILES): CCOC(=O)[C@H](Cc1ccccc1)NC(=O)Nc1ccc2[nH]c(C(=O)OC)cc(=O)c2c1
- EC50 (UoC-B1): > 13.9 µM
- EC50 (KOPN-8): > 13.9 µM
- EC50 (BJ): > 27.6 µM
- EC50 (SEM cells): > 13.9 µM
- EC50 (SUP-B15): 16.5 µM

- EC50 (HepG2): > 50 µM
Structure (SMILES): COc1cc(OC)c2c(=O)cc(C(=O)Nc3ccc(Oc4ccc(F)cc4)cc3)[nH]c2c1
- EC50 (UoC-B1): > 50 µM
- EC50 (KOPN-8): > 50 µM
- EC50 (BJ): > 50 µM
- EC50 (SEM cells): > 50 µM
- EC50 (SUP-B15): > 50 µM

- EC50 (HepG2): 67.7 µM
Structure (SMILES): O=c1c(-c2ccc(O)cc2)coc2cc(O)cc(O)c12 [GENISTEIN]
- EC50 (UoC-B1): 35.7 µM
- EC50 (KOPN-8): > 86.2 µM
- EC50 (BJ): > 86.2 µM
- EC50 (SEM cells): 59.3 µM
- EC50 (SUP-B15): > 86.2 µM

- EC50 (HepG2): > 20.2 µM
Structure (SMILES): COC(=O)c1cc(=O)c2cc(NC(=O)Nc3cc(F)cc(C(F)(F)F)c3)ccc2[nH]1
- EC50 (UoC-B1): > 20.2 µM
- EC50 (KOPN-8): > 20.2 µM
- EC50 (BJ): > 40.2 µM
- EC50 (SEM cells): > 20.2 µM
- EC50 (SUP-B15): > 40.2 µM

- EC50 (HepG2): > 17.3 µM
Structure (SMILES): COc1ccc(-c2cc(=O)c3c(OC)cc(OC)cc3n2Cc2ccccc2)cc1
- EC50 (UoC-B1): > 17.3 µM
- EC50 (KOPN-8): > 17.3 µM
- EC50 (BJ): > 34.5 µM
- EC50 (SEM cells): > 17.3 µM
- EC50 (SUP-B15): > 34.5 µM

- EC50 (HepG2): > 11.5 µM
Structure (SMILES): C=C(C)c1cccc(C(C)(C)NC(=O)Nc2ccc3[nH]c(C(=O)OC)cc(=O)c3c2)c1
- EC50 (UoC-B1): > 11.5 µM
- EC50 (KOPN-8): > 11.5 µM
- EC50 (BJ): > 23 µM
- EC50 (SEM cells): > 11.5 µM
- EC50 (SUP-B15): > 23 µM

- EC50 (HepG2): > 16.4 µM
Structure (SMILES): COc1cc(OC)c2c(=O)cc(C(=O)Nc3cccc(-n4ccnc4)c3)[nH]c2c1
- EC50 (UoC-B1): > 16.4 µM
- EC50 (KOPN-8): > 16.4 µM
- EC50 (BJ): > 16.4 µM
- EC50 (SEM cells): > 16.4 µM
- EC50 (SUP-B15): > 16.4 µM

- EC50 (HepG2): > 16.2 µM
Structure (SMILES): COC(=O)c1cc(=O)c2cc(NC(=O)NC34CC5CC(CC(C5)C3)C4)ccc2[nH]1
- EC50 (UoC-B1): > 16.2 µM
- EC50 (KOPN-8): > 16.2 µM
- EC50 (BJ): > 32.2 µM
- EC50 (SEM cells): > 16.2 µM
- EC50 (SUP-B15): 9.1 µM

Structure (SMILES): O=c1cc(-c2ccc(O)cc2)oc2c([C@@H]3O[C@H](CO)[C@@H](O)[C@H](O)[C@H]3O)c(O)cc(O)c12 [VITEXIN]
- EC50 (UoC-B1): > 43.3 µM
- EC50 (KOPN-8): > 43.3 µM
- EC50 (BJ): > 86.2 µM
- EC50 (THLE-2): 200 µM
- EC50 (SEM cells): > 43.3 µM
- EC50 (SUP-B15): 50.7 µM
- EC50 (HepG2): > 43.3 µM
